Measured values reported in patent US12565497B2 (Hoffmann-La Roche Inc., priority 2020, dated 2026).

target: Recombinant human Mat2a (Homo sapiens (Human), UniProt P31153); assay: Determination of Mat2A activity (384 well absorbance-based assay, Biomol Green); format: biochemical; conditions: 12.5 nM Mat2A, 100 μM ATP and Methionine, 2% DMSO, 120 minutes at RT, absorbance at 635 nm; read-out: MAT2A_LEC IC50 (uM) (Num)
Description: Determination of Mat2A Activity
Measurement of Mat2A inhibition is performed in 384 well format absorbance-based assay. Recombinant human Mat2a (12.5 nM) and serial diluted compounds in DMSO (range of concentrations from 10 μM to 508 pM) or controls (DMSO) are incubated for 15 minutes at room temperature (RT) in assay buffer containing 50 mM HEPES pH 7.5, 50 mM KCl, 50 mM MgCl2, 0.01%Tween 20 and 10 mM DTT. The reaction is initiated by the addition of the combined substrates ATP and Methionine, each at a final concentration of 100 μM. Final assay condition are 12.5 nM Mat2A, 100 μM ATP and Methionine Substrates and 2% DMSO. After 120 minutes of incubation at RT, the reaction is stopped by the addition of Biomol Green. The absorbance signal is measured at λ=635 nm with a multiplate reader (BMG Pherastar reader or equivalent) after 30 min of equilibration at RT.

Sequence of Recombinant human Mat2a (P31153 whole entry): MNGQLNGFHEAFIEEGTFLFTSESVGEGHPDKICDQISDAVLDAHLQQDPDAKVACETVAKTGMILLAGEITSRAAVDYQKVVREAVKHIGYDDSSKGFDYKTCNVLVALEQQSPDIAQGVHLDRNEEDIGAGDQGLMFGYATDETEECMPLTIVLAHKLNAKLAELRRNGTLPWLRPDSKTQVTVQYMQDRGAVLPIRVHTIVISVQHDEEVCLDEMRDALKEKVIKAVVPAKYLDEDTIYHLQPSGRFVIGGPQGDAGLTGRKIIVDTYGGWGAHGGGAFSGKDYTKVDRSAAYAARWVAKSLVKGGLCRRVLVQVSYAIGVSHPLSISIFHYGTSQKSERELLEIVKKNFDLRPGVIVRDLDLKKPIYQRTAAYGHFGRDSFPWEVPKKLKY

Row | SMILES | IC50 [µM]
1 | Cc1cc(-c2c(S(C)(=O)=O)ccc3[nH]nc(OC(F)F)c23)ccc1S(=O)(=O)C1CC1 [Example 55, 4-(4-cyclopropylsulfonyl-3-methyl-phenyl)-3-(difluoromethoxy)-5-methylsulfonyl-1H-indazole] | < 0.013
2 | Cc1cc(-n2c(=O)ccc3[nH]nc(OC(F)F)c32)ccc1S(C)(=O)=O [Example 78, 3-(difluoromethoxy)-4-(3-methyl-4-methylsulfonyl-phenyl)-1H-pyrazolo[4,3-b]pyridin-5-one] | < 0.013
3 | CNC(=O)c1ncc2[nH]nc(OC(F)F)c2c1-c1ccc(S(C)(=O)=O)c(C)c1 [Example 110, 3-(difluoromethoxy)-N-methyl-4-(3-methyl-4-methylsulfonyl-phenyl)-1H-pyrazolo[3,4-c]pyridine-5-carboxamide] | < 0.013
4 | Cc1cc(-c2c(C(N)=O)ncc3[nH]nc(OC(F)F)c23)ccc1S(=O)(=O)C1CC1 [Example 116, 4-(4-cyclopropylsulfonyl-3-methyl-phenyl)-3-(difluoromethoxy)-1H-pyrazolo[3,4-c]pyridine-5-carboxamide] | < 0.013
5 | Cc1cc(-c2ncc(F)c3[nH]nc(C4CC4)c23)ccc1S(C)(=O)=O [Example 67, 3-cyclopropyl-7-fluoro-4-(3-methyl-4-methylsulfonyl-phenyl)-1H-pyrazolo[4,3-c]pyridine] | 0.025
6 | CCCS(=O)(=O)c1ccc(-c2nccc3[nH]nc(OC(F)F)c23)cc1C [Example 30] | 0.057
7 | Cc1cc(-c2nccc3[nH]nc(-c4ccsc4)c23)ccc1S(C)(=O)=O [Example 65, 4-(3-methyl-4-(methylsulfonyl)phenyl)-3-(thiophen-3-yl)-1H-pyrazolo[4,3-c]pyridine] | 0.52
8 | Cc1cc(-c2c(S(C)(=O)=O)ccc3[nH]nc(C4CC4)c23)ccc1S(C)(=O)=O [Example 77, 3-cyclopropyl-4-(3-methyl-4-(methylsulfonyl)phenyl)-5-(methylsulfonyl)-1H-indazole] | 0.013
9 | O=S(=O)(c1ccc(-c2nccc3[nH]nc(C4CC4)c23)cc1Cl)C1CC1 [Example 8, 4-(3-chloro-4-(cyclopropylsulfonyl)phenyl)-3-cyclopropyl-1H-pyrazolo[4,3-c]pyridine] | 0.37
10 | CNC(=O)c1ncc2[nH]nc(C3CC3)c2c1-c1cc(C)c(S(=O)(=O)C2CC2)cc1F [Example 96, 3-cyclopropyl-4-(4-cyclopropylsulfonyl-2-fluoro-5-methyl-phenyl)-N-methyl-1H-pyrazolo[3,4-c]pyridine-5-carboxamide] | < 0.013
11 | Cc1cc(-c2c(C#N)ncc3[nH]nc(OC(F)F)c23)ccc1S(=O)(=O)C(F)F [Example 105, 3-(difluoromethoxy)-4-(4-((difluoromethyl)sulfonyl)-3-methylphenyl)-1H-pyrazolo[3,4-c]pyridine-5-carbonitrile] | < 0.013
12 | Cc1cc(-c2nccc3[nH]nc(OC(F)F)c23)ccc1S(=O)(=O)C1CC1 [Example 26, 4-(4-cyclopropylsulfonyl-3-methyl-phenyl)-3-(difluoromethoxy)-1H-pyrazolo[4,3-c]pyridine] | < 0.013
13 | CS(=O)(=O)c1ccc(-c2nccc3[nH]nc(C4CC4)c23)cc1C(F)F [Example 12, 3-cyclopropyl-4-(3-(difluoromethyl)-4-(methylsulfonyl)phenyl)-1H-pyrazolo[4,3-c]pyridine] | 0.22
14 | Cc1cc(-c2c(C#N)ncc3[nH]nc(C4CC4)c23)ccc1S(=O)(=O)C(F)F [Example 50, 3-cyclopropyl-4-[4-(difluoromethylsulfonyl)-3-methyl-phenyl]-1H-pyrazolo[3,4-c]pyridine-5-carbonitrile] | < 0.013
15 | Cc1cc(-c2c(S(=O)(=O)N(C)C)ccc3[nH]nc(C4CC4)c23)ccc1S(C)(=O)=O [Example 114, 3-cyclopropyl-N,N-dimethyl-4-(3-methyl-4-methylsulfonyl-phenyl)-1H-indazole-5-sulfonamide] | 0.03
16 | Cc1cc(-c2nccc3[nH]nc(C4CC4)c23)ccc1S(=O)(=O)C1CC1 [Example 7, 3-cyclopropyl-4-(4-(cyclopropylsulfonyl)-3-methylphenyl)-1H-pyrazolo[4,3-c]pyridine] | 0.046
17 | Cc1cc(-c2nccc3[nH]nc(C4CC4)c23)ccc1S(=O)(=O)N(C)C [Example 5, 4-(3-cyclopropyl-1H-pyrazolo[4,3-c]pyridin-4-yl)-N,N,2-trimethylbenzenesulfonamide] | 0.17
18 | CNS(=O)(=O)c1ccc2[nH]nc(C3CC3)c2c1-c1ccc(S(C)(=O)=O)c(C)c1 [Example 115, 3-cyclopropyl-N-methyl-4-(3-methyl-4-methylsulfonyl-phenyl)-1H-indazole-5-sulfonamide] | 0.03
19 | Cc1cc(-c2c(C#N)ncc3[nH]nc(OC(F)F)c23)ccc1S(C)(=O)=O [Example 52, 3-(difluoromethoxy)-4-(3-methyl-4-methylsulfonyl-phenyl)-1H-pyrazolo[3,4-c]pyridine-5-carbonitrile] | < 0.013
20 | COc1ncc2[nH]nc(C3CC3)c2c1-c1ccc(S(C)(=O)=O)c(C)c1 [Example 24, 3-cyclopropyl-5-methoxy-4-(3-methyl-4-(methylsulfonyl)phenyl)-1H-pyrazolo[3,4-c]pyridine] | < 0.013
21 | Cc1cc(-c2nccc3[nH]cc(C4CC4)c23)ccc1S(C)(=O)=O [Example 14, 3-cyclopropyl-4-(3-methyl-4-(methylsulfonyl)phenyl)-1H-pyrrolo[3,2-c]pyridine] | 0.099
22 | Cc1cc(-c2c(C3CC3)ncc3[nH]nc(C4CC4)c23)ccc1S(C)(=O)=O [Example 85] | 0.02
23 | Cc1cc(-c2nccc3[nH]nc(OC(F)F)c23)ccc1S(=O)(=O)CC1CC1 [Example 29, 4-[4-(cyclopropylmethylsulfonyl)-3-methyl-phenyl]-3-(difluoromethoxy)-1H-pyrazolo[4,3-c]pyridine] | 0.29
24 | CNS(=O)(=O)c1ccc(-c2nccc3[nH]nc(OC(F)F)c23)cc1C [Example 33, 4-[3-(difluoromethoxy)-1H-pyrazolo[4,3-c]pyridin-4-yl]-N,2-dimethyl-benzenesulfonamide] | 0.029
25 | CC(=O)NCCCCNc1cnc(-c2ccc(S(C)(=O)=O)c(C)c2)c2c(C3CC3)n[nH]c12 [Example 103, N-[4-[[3-cyclopropyl-4-(3-methyl-4-methylsulfonyl-phenyl)-1H-pyrazolo[4,3-c]pyridin-7-yl]amino]butyl]acetamide] | 0.04
26 | Cc1cc(-c2c(C#N)c(Cl)cc3[nH]nc(C4CC4)c23)ccc1S(C)(=O)=O [Example 90, 6-chloro-3-cyclopropyl-4-(3-methyl-4-methylsulfonylphenyl)-1H-indazole-5-carbonitrile] | < 0.013

Other lines, results leading:

Row | IC50 [µM] | SMILES
27 | 0.17 | COc1ncc2[nH]nc(C3CC3)c2c1-c1ccc(S(C)(=O)=O)cc1 [Example 6, 3-cyclopropyl-5-methoxy-4-(4-methylsulfonylphenyl)-1H-pyrazolo[3,4-c]pyridine]
28 | 0.06 | Cc1cc(-c2ncc(NCCCCN)c3[nH]nc(C4CC4)c23)ccc1S(C)(=O)=O [Example 102, N′-[3-cyclopropyl-4-(3-methyl-4-methylsulfonyl-phenyl)-1H-pyrazolo[4,3-c]pyridin-7-yl]butane-1,4-diamine]
29 | < 0.013 | COc1ncc2[nH]nc(C(F)(F)F)c2c1-c1ccc(S(C)(=O)=O)c(C)c1 [Example 39, 5-methoxy-4-(3-methyl-4-(methylsulfonyl)phenyl)-3-(trifluoromethyl)-1H-pyrazolo[3,4-c]pyridine]
30 | 0.13 | CCOc1n[nH]c2ccnc(-c3ccc(S(C)(=O)=O)c(C)c3)c12 [Example 66, 3-ethoxy-4-(3-methyl-4-methylsulfonyl-phenyl)-1H-pyrazolo[4,3-c]pyridine]
31 | 0.14 | COCc1ncc2[nH]nc(C3CC3)c2c1-c1ccc(S(C)(=O)=O)c(C)c1 [Example 41, 3-cyclopropyl-5-(methoxymethyl)-4-(3-methyl-4-(methylsulfonyl)phenyl)-1H-pyrazolo[3,4-c]pyridine]
32 | 0.015 | CNC(=O)c1ncc2[nH]nc(OC(F)F)c2c1-c1ccc(S(=O)(=O)C(F)F)c(C)c1 [Example 108]
33 | 0.29 | Cc1cc(-c2nccc3[nH]nc(S(C)(=O)=O)c23)ccc1S(C)(=O)=O [Example 60, 4-(3-methyl-4-(methylsulfonyl)phenyl)-3-(methylsulfonyl)-1H-pyrazolo[4,3-c]pyridine]
34 | 0.017 | Cc1cc(-c2c(C#N)ncc3[nH]nc(C4CC4)c23)c(F)cc1S(C)(=O)=O [Example 47, 3-cyclopropyl-4-(2-fluoro-5-methyl-4-methylsulfonyl-phenyl)-1H-pyrazolo[3,4-c]pyridine-5-carbonitrile]
35 | < 0.013 | CCS(=O)(=O)c1ccc(-c2c(C#N)ncc3[nH]nc(C4CC4)c23)cc1C [Example 42, 3-cyclopropyl-4-(4-ethylsulfonyl-3-methyl-phenyl)-1H-pyrazolo[3,4-c]pyridine-5-carbonitrile]
36 | 0.02 | Cc1cc(-c2c(S(C)(=O)=O)ccc3[nH]nc(OC(F)F)c23)c(F)cc1S(C)(=O)=O [Example 119, 3-(difluoromethoxy)-4-(2-fluoro-5-methyl-4-methylsulfonyl-phenyl)-5-methylsulfonyl-1H-indazole]
37 | < 0.013 | Cc1cc(-c2c(C(N)=O)ncc3[nH]nc(OC(F)F)c23)ccc1S(=O)(=O)C(F)F [Example 106, 3-(difluoromethoxy)-4-[4-(difluoromethylsulfonyl)-3-methyl-phenyl]-1H-pyrazolo[3,4-c]pyridine-5-carboxamide]
